Data published in ChEMBL document CHEMBL2375215, “Phenylpropiophenone derivatives as potential anticancer agents: synthesis, biological evaluation and quantitative structure-activity relationship study” (Eur J Med Chem, 2013).
pIC50: −log10 of the molar value.

Experiments:
[1] = Selectivity index, ratio of IC50 for PHA-stimulated human PBMC to IC50 for human LS174 cells
[2] = Selectivity index, ratio of IC50 for human PBMC to IC50 for human LS174 cells
[3] = tested on: PC-3; experiment: Selectivity index, ratio of IC50 for human PBMC to IC50 for human PC3 cells
[4] = tested on: PC-3; experiment: Selectivity index, ratio of IC50 for PHA-stimulated human PBMC to IC50 for human PC3 cells
[5] = tested on: MCF7; experiment: Selectivity index, ratio of IC50 for PHA-stimulated human PBMC to IC50 for human MCF7 cells
[6] = tested on: MCF7; experiment: Selectivity index, ratio of IC50 for human PBMC to IC50 for human MCF7 cells
[7] = tested on: K562; experiment: Selectivity index, ratio of IC50 for PHA-stimulated human PBMC to IC50 for human K562 cells
[8] = tested on: K562; experiment: Selectivity index, ratio of IC50 for human PBMC to IC50 for human K562 cells
[9] = Selectivity index, ratio of IC50 for PHA-stimulated human PBMC to IC50 for human Fem-X cells; assay type: functional
[10] = Selectivity index, ratio of IC50 for human PBMC to IC50 for human Fem-X cells
[11] = tested on: HeLa; experiment: Selectivity index, ratio of IC50 for PHA-stimulated human PBMC to IC50 for human HeLa cells
[12] = tested on: HeLa; experiment: Selectivity index, ratio of IC50 for human PBMC to IC50 for human HeLa cells
[13] = tested on: PBMC; experiment: Cytotoxicity against human PBMC assessed as decrease in cell survival after 72 hrs by MTT assay; assay type: cell-based
[14] = tested on: PBMC; experiment: Cytotoxicity against PHA-stimulated human PBMC assessed as decrease in cell survival after 72 hrs by MTT assay; assay type: cell-based
[15] = (§1) Cytotoxicity against human LS174 cells assessed as decrease in cell survival after 72 hrs by MTT assay; assay type: functional, cell-based; settings: LS174, 72 h; for pIC50: read-out: IC50; for IC50: read-out: pIC50 (converted)
[16] = tested on: LS174; experiment: as §1; assay type: functional, cell-based
[17] = tested on: PC-3; experiment: Cytotoxicity against human PC3 cells assessed as decrease in cell survival after 72 hrs by MTT assay; assay type: functional, cell-based; settings: for pIC50 / IC50: PC-3, 72 h; for pIC50: read-out: IC50; for IC50: read-out: pIC50 (converted)
[18] = tested on: MCF7; experiment: Cytotoxicity against human MCF7 cells assessed as decrease in cell survival after 72 hrs by MTT assay; assay type: functional, cell-based; settings: for pIC50 / IC50: MCF7, 72 h; for pIC50: read-out: IC50; for IC50: read-out: pIC50 (converted)
[19] = tested on: K562; experiment: Cytotoxicity against human K562 cells assessed as decrease in cell survival after 72 hrs by MTT assay; assay type: functional, cell-based; settings: for pIC50 / IC50: K562, 72 h; for pIC50: read-out: IC50; for IC50: read-out: pIC50 (converted)
[20] = (§2) Cytotoxicity against human Fem-X cells assessed as decrease in cell survival after 72 hrs by MTT assay; assay type: functional, cell-based; settings: for pIC50: read-out: IC50; for IC50: read-out: pIC50 (converted)
[21] = tested on: Fem-X; experiment: as §2; assay type: functional, cell-based
[22] = tested on: HeLa; experiment: Cytotoxicity against human HeLa cells assessed as decrease in cell survival after 72 hrs by MTT assay; assay type: functional, cell-based; settings: for pIC50: read-out: IC50; for IC50: read-out: pIC50 (converted)
[23] = tested on: Aorta; experiment: Cytotoxicity against rat aorta at < 10 uM in presence of potassium channel and calcium channel blocker; assay type: tissue-based

| SMILES | Ratio IC50 [1] | Ratio IC50 [2] | Ratio IC50 [3] | Ratio IC50 [4] | Ratio IC50 [5] | Ratio IC50 [6] | Ratio IC50 [7] | Ratio IC50 [8] | Ratio IC50 [9] | Ratio IC50 [10] | Ratio IC50 [11] | Ratio IC50 [12] | pIC50 [13] | pIC50 [14] | pIC50 [15] | IC50 [15] [µM] | Activity [16] | Activity [17] | pIC50 [17] | IC50 [17] [µM] | other results |
| --- | --- | --- | --- | --- | --- | --- | --- | --- | --- | --- | --- | --- | --- | --- | --- | --- | --- | --- | --- | --- | --- |
| CCCNCC(O)COc1ccccc1C(=O)CCc1ccccc1C(F)(F)F.Cl (racemic) | 1.91 | 2.39 | 1.91 | 1.52 | 3.66 | 4.58 | 4.03 | 5.05 | 2.2 | 2.76 | 5.24 | 6.55 | 4.35 | 4.45 | 4.73 | 18.6 | Dose-dependent effect | Dose-dependent effect | 4.63 | 23.3 | Activity [18]: Dose-dependent effect; pIC50 [18]: 5.01; IC50 [18]: 9.7 µM; Activity [19]: Dose-dependent effect; pIC50 [19]: 5.06; IC50 [19]: 8.8 µM; pIC50 [20]: 4.79; IC50 [20]: 16.1 µM; Activity [21]: Dose-dependent effect; Activity [22]: Dose-dependent effect; pIC50 [22]: 5.17; IC50 [22]: 6.78 µM |
| CCCNCC(O)COc1ccccc1C(=O)CCc1ccccc1Cl.Cl (racemic) | 4.72 | 5.31 | 4.72 | 4.2 | 2.62 | 2.95 | 8.82 | 9.91 | 10.8 | 12.14 | 17.63 | 19.83 | 4.23 | 4.28 | 4.95 | 11.2 | Dose-dependent effect | Dose-dependent effect | 4.90 | 12.6 | Activity [23]: Not Active; Activity [18]: Dose-dependent effect; pIC50 [18]: 4.69; IC50 [18]: 20.2 µM; Activity [19]: Dose-dependent effect; pIC50 [19]: 5.22; IC50 [19]: 6 µM; pIC50 [20]: 5.31; IC50 [20]: 4.9 µM; Activity [21]: Dose-dependent effect; Activity [22]: Dose-dependent effect; pIC50 [22]: 5.52; IC50 [22]: 3 µM |
